# Data published in ChEMBL document CHEMBL1152576, “E-Combretastatin and E-resveratrol structural modifications: antimicrobial and cancer cell growth inhibitory beta-E-nitrostyrenes” (Bioorg Med Chem, 2009).
# The source made the active and inactive calls. The calls are words filed in the database; no cut-off is given here.
# Columns and labels:
# Candida albicans [1] = assay: Antimicrobial activity against Candida albicans ATCC 90028 assessed clear zone in inhibition per disk by CLSI disk diffusion susceptibility assay; format: functional
# DU-145 = assay: Cytotoxicity against human DU145 cells after 48 hrs by sulforhodamine B assay; format: functional; conditions: DU-145, 48 h
# P388 = assay: Cytotoxicity against mouse P388 cells after 48 hrs by sulforhodamine B assay; format: functional; conditions: P388, 48 h, read-out: ED50 (the source's name)
# Streptococcus pneumoniae [2] = assay: Antimicrobial activity against Streptococcus pneumoniae ATCC 6303 by broth microdilution susceptibility assay; format: functional
# A498 = assay: Cytotoxicity against human A498 cells after 48 hrs by sulforhodamine B assay; format: functional
# Candida albicans [3] = assay: Antifungal activity against Candida albicans ATCC 90028 after 48 hrs by broth microdilution susceptibility assay; format: functional; conditions: ATCC 90028, 48 h
# Escherichia coli [4] = assay: Antimicrobial activity against Escherichia coli ATCC 25922 assessed clear zone in inhibition per disk by CLSI disk diffusion susceptibility assay; format: functional
# SF-295 = assay: Cytotoxicity against human SF295 cells after 48 hrs by sulforhodamine B assay; format: functional; conditions: SF-295, 48 h
# NCI-H460 = assay: Cytotoxicity against human NCI-H460 cells after 48 hrs by sulforhodamine B assay; format: functional; conditions: NCI-H460, 48 h
# Candida albicans [5] = assay: Antifungal activity against Candida albicans ATCC 90028 after 24 hrs by broth microdilution susceptibility assay; format: functional; conditions: ATCC 90028, 24 h
# Streptococcus pneumoniae [6] = assay: Antimicrobial activity against Streptococcus pneumoniae ATCC 6303 assessed clear zone in inhibition per disk by CLSI disk diffusion susceptibility assay; format: functional
# [7] = Inhibition of tubulin polymerization
# Enterococcus faecalis [8] = assay: Antimicrobial activity against Enterococcus faecalis ATCC 29212 after 24 hrs by broth microdilution susceptibility assay; format: functional; conditions: ATCC 29212, 24 h
# Neisseria gonorrhoeae [9] = assay: Antimicrobial activity against Neisseria gonorrhoeae ATCC 49226 by broth microdilution susceptibility assay; format: functional
# Micrococcus luteus [10] = assay: Antimicrobial activity against Micrococcus luteus Presque Isle 456 assessed clear zone in inhibition per disk by CLSI disk diffusion susceptibility assay; format: functional
# [11] = test system: Stenotrophomonas maltophilia; assay: Antimicrobial activity against Stenotrophomonas maltophilia ATCC 13637 assessed clear zone in inhibition per disk by CLSI disk diffusion susceptibility assay; format: functional
# Cryptococcus neoformans [12] = assay: Antimicrobial activity against Cryptococcus neoformans ATCC 90112 assessed clear zone in inhibition per disk by CLSI disk diffusion susceptibility assay; format: functional
# Streptococcus pneumoniae [13] = assay: Antimicrobial activity against Streptococcus pneumoniae ATCC 6303 after 24 hrs by broth microdilution susceptibility assay; format: functional; conditions: ATCC 6303, 24 h
# Staphylococcus aureus [14] = assay: Antimicrobial activity against Staphylococcus aureus ATCC 29213 after 24 hrs by broth microdilution susceptibility assay; format: functional; conditions: ATCC 29213, 24 h
# Staphylococcus aureus [15] = assay: Antimicrobial activity against Staphylococcus aureus ATCC 29213 assessed clear zone in inhibition per disk by CLSI disk diffusion susceptibility assay; format: functional
# Escherichia coli [16] = assay: Antimicrobial activity against Escherichia coli ATCC 25922 by broth microdilution susceptibility assay; format: functional
# Neisseria gonorrhoeae [17] = assay: Antimicrobial activity against Neisseria gonorrhoeae ATCC 49226 assessed clear zone of inhibition measured per disk by CLSI disk diffusion susceptibility assay; format: functional
# SF-268 = assay: Cytotoxicity against human SF268 cells after 48 hrs by sulforhodamine B assay; format: functional
# Cryptococcus neoformans [18] = assay: Antifungal activity against Cryptococcus neoformans ATCC 90112 after 72 hrs by broth microdilution susceptibility assay; format: functional; conditions: ATCC 90112, 72 h
# BXPC-3 = assay: Cytotoxicity against human BxPC3 cells after 48 hrs by sulforhodamine B assay; format: functional; conditions: BXPC-3, 48 h
# SK-MEL-5 = assay: Cytotoxicity against human SK-MEL-5 cells after 48 hrs by sulforhodamine B assay; format: functional
# Enterococcus faecalis [19] = assay: Antimicrobial activity against Enterococcus faecalis ATCC 29212 by broth microdilution susceptibility assay; format: functional
# Enterobacter cloacae [20] = assay: Antimicrobial activity against Enterobacter cloacae ATCC 13047 after 24 hrs by broth microdilution susceptibility assay; format: functional; conditions: ATCC 13047, 24 h
# Micrococcus luteus [21] = assay: Antimicrobial activity against Micrococcus luteus Presque Isle 456 by broth microdilution susceptibility assay; format: functional
# Enterobacter cloacae [22] = assay: Antimicrobial activity against Enterobacter cloacae ATCC 13047 by broth microdilution susceptibility assay; format: functional
# Enterococcus faecalis [23] = assay: Antimicrobial activity against Enterococcus faecalis ATCC 29212 assessed clear zone in inhibition per disk by CLSI disk diffusion susceptibility assay; format: functional
# [24] = test system: Stenotrophomonas maltophilia; assay: Antimicrobial activity against Stenotrophomonas maltophilia ATCC 13637 by broth microdilution susceptibility assay; format: functional
# Neisseria gonorrhoeae [25] = assay: Antimicrobial activity against Neisseria gonorrhoeae ATCC 49226 after 24 hrs by broth microdilution susceptibility assay; format: functional; conditions: ATCC 49226, 24 h
# KM-20L2 = assay: Cytotoxicity against human KM20L2 cells after 48 hrs by sulforhodamine B assay; format: functional; conditions: KM-20L2, 48 h
# MCF7 = assay: Cytotoxicity against human MCF7 cells after 48 hrs by sulforhodamine B assay; format: functional; conditions: MCF7, 48 h
# Escherichia coli [26] = assay: Antimicrobial activity against Escherichia coli ATCC 25922 after 24 hrs by broth microdilution susceptibility assay; format: functional; conditions: ATCC 25922, 24 h
# OVCAR-3 = assay: Cytotoxicity against human OVCAR-3 cells after 48 hrs by sulforhodamine B assay; format: functional
# [27] = test system: Stenotrophomonas maltophilia; assay: Antimicrobial activity against Stenotrophomonas maltophilia ATCC 13637 after 24 hrs by broth microdilution susceptibility assay; format: functional; conditions: ATCC 13637, 24 h
# Staphylococcus aureus [28] = assay: Antimicrobial activity against Staphylococcus aureus ATCC 29213 by broth microdilution susceptibility assay; format: functional
# Enterobacter cloacae [29] = assay: Antimicrobial activity against Enterobacter cloacae ATCC 13047 assessed clear zone in inhibition per disk by CLSI disk diffusion susceptibility assay; format: functional
smiles,measurement,setting,value
COc1ccccc1/C=C/[N+](=O)[O-],MIC,Candida albicans [1],1.56 µg
same,GI50,DU-145,1.5 µg/mL
same,EC50,P388,0.51 µg/mL
same,MIC,Streptococcus pneumoniae [2],64 µg/mL
same,GI50,A498,inactive
same,MIC,Candida albicans [3],8 µg/mL
same,MIC,Escherichia coli [4],50 µg
same,GI50,SF-295,1.7 µg/mL
same,GI50,NCI-H460,1.7 µg/mL
same,MFC,Candida albicans [5],16 µg/mL
same,MIC,Streptococcus pneumoniae [6],25 µg
same,IC50,[7],7.4 µM
same,MBC,Enterococcus faecalis [8],> 64 µg/mL
same,MIC,Neisseria gonorrhoeae [9],2 µg/mL
same,MIC,Micrococcus luteus [10],>100 µg
same,MIC,[11],12.5 µg
same,MIC,Cryptococcus neoformans [12],0.78 µg
same,MBC,Streptococcus pneumoniae [13],> 64 µg/mL
same,MBC,Staphylococcus aureus [14],> 64 µg/mL
same,MIC,Staphylococcus aureus [15],6.25 µg
same,MIC,Escherichia coli [16],64 µg/mL
same,MIC,Neisseria gonorrhoeae [17],0.78 µg
same,GI50,SF-268,inactive
same,MIC,Cryptococcus neoformans [18],> 64 µg/mL
same,GI50,BXPC-3,1.6 µg/mL
same,GI50,SK-MEL-5,inactive
same,MIC,Enterococcus faecalis [19],64 µg/mL
same,MBC,Enterobacter cloacae [20],> 64 µg/mL
same,MIC,Micrococcus luteus [21],> 64 µg/mL
same,MIC,Enterobacter cloacae [22],64 µg/mL
same,MIC,Enterococcus faecalis [23],0.78 µg
same,MIC,[24],32 µg/mL
same,MBC,Neisseria gonorrhoeae [25],2 µg/mL
same,GI50,KM-20L2,1.5 µg/mL
same,GI50,MCF7,0.48 µg/mL
same,MBC,Escherichia coli [26],64 µg/mL
same,GI50,OVCAR-3,inactive
same,MBC,[27],64 µg/mL
same,MIC,Staphylococcus aureus [28],64 µg/mL
same,MIC,Enterobacter cloacae [29],25 µg
